For 39 compounds, TGI results are on record in PubChem BioAssay (NCI).

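48-hour exposure; five concentrations; linearly interpolated endpoints. At the TGI there is no net growth.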 Where only a bound is given, the exact number is not on record here.

Test systems include SF-295 CNS; KM20L2 colon; RXF-631 renal; SNB-78 CNS; LXFL 529 NSCLC; M19-MEL melanoma; DLD-1 colon; XF 498 CNS; HOP-18 NSCLC; DMS 114 small cell lung; DMS 273 small cell lung.
Common to all, as to test: NCI tumour cell line growth inhibition, 48 h

Regarding `CC1(Cl)CC(C)(/C=C/Cl)C(Cl)CC1Cl` (stereo unspecified), the TGI with SF-295 CNS was 28.5 µM; in the test with KM20L2 colon it was 31.6 µM; with RXF-631 renal, 28.7 µM; in the test with SNB-78 CNS it was 46.8 µM; with LXFL 529 NSCLC, 28.3 µM; in the test on M19-MEL melanoma, 59.1 µM. Also, the results for the TGI in the test on DLD-1 colon and in the test on XF 498 CNS were 35.7 µM and 27.4 µM, respectively.

In the case of `N#CC(NNC(=O)c1ccccc1O)c1c(O)ccc2ccccc12` (stereo unspecified), the TGI is 8.2 µM with HOP-18 NSCLC; 50.5 µM in the test with SF-295 CNS; 68 µM with KM20L2 colon; more than 100 µM in the test on SNB-78 CNS; 33.4 µM in the test with LXFL 529 NSCLC; 9.62 µM in the test on M19-MEL melanoma. Moreover, the results for the TGI with DLD-1 colon, in the test on DMS 114 small cell lung and with DMS 273 small cell lung were more than 100 µM, 5.14 µM and 14.2 µM, respectively.

Take `CC(=O)[C@]1(O)Cc2c(O)c3c(c(O)c2[C@@H](OC2CC(N)C(O)C(C)O2)C1)C(=O)c1c(OCc2ccccc2)cccc1C3=O` (stereo partly specified): the TGI in the test on HOP-18 NSCLC is 3.33 µM; with SF-295 CNS it was 4.05 µM; in the test on SNB-78 CNS it was 36.1 µM; with LXFL 529 NSCLC, 2.38 µM; with DMS 114 small cell lung, 2.55 µM; in the test with XF 498 CNS, 14.5 µM.

In the case of `Cn1c(NC(=O)NC23CC4CC(CC(C4)C2)C3)nc2ccccc21`, the TGI in the test with HOP-18 NSCLC is more than 100 µM; in the test with SF-295 CNS, 52.3 µM; in the test with KM20L2 colon, more than 100 µM; in the test with SNB-78 CNS it was 97 µM; in the test with LXFL 529 NSCLC it was more than 100 µM; with M19-MEL melanoma, more than 100 µM. Besides, the TGI with DLD-1 colon and in the test with DMS 273 small cell lung was more than 100 µM throughout.

In the case of `O=C(O)/C=C/c1ccncc1`, the TGI with SF-295 CNS, in the test on KM20L2 colon, with SNB-78 CNS, with LXFL 529 NSCLC, with M19-MEL melanoma and with DLD-1 colon was more than 100 µM each time. The TGI in the test on DMS 114 small cell lung, in the test on DMS 273 small cell lung and in the test with XF 498 CNS was more than 100 µM each time.

`Cc1ccc(NC(=O)C(=O)Cc2cccc[n+]2[O-])cc1C`: the TGI with HOP-18 NSCLC, in the test on SF-295 CNS, in the test on KM20L2 colon, in the test on SNB-78 CNS, in the test with LXFL 529 NSCLC and in the test with M19-MEL melanoma was more than 100 µM in each case. For the same compound, the TGI in the test on DLD-1 colon, in the test with DMS 114 small cell lung and with XF 498 CNS was more than 100 µM throughout.

In the test with SF-295 CNS, `CC(CC=O)Nc1nn2c(=O)c3ccccc3nc2s1` (stereo unspecified) came in with a TGI of more than 100 µM.

For `Cc1ccccc1Nc1nc2ccccc2nc1NS(=O)(=O)c1ccccc1`, in the test with SF-295 CNS, the TGI is more than 100 µM.

`O=C1/C(=C/c2ccc(Cl)cc2)Oc2ccccc21` had a TGI with SF-295 CNS of more than 100 µM.

Compound `Cc1nc(Cc2n[nH]c(C)n2)n[nH]1` showed a TGI in the test on SF-295 CNS of more than 100 µM.

`CC(C)=CC(=O)c1c(C(=O)O)nc2ccccc2[n+]1[O-]`: the TGI in the test with SF-295 CNS, with KM20L2 colon, in the test on RXF-631 renal, with SNB-78 CNS, with LXFL 529 NSCLC and in the test with M19-MEL melanoma was more than 100 µM each time. The TGI with DLD-1 colon, with DMS 114 small cell lung and in the test on DMS 273 small cell lung was more than 100 µM each time.

For `C(=C\c1c2oc(-c3ccccc3)cc(-c3ccccc3)c-2c2ccccc12)/C=C1\c2ccccc2-c2c(-c3ccccc3)cc(-c3ccccc3)[o+]c21`, the TGI with SF-295 CNS, in the test on KM20L2 colon, with SNB-78 CNS, in the test with LXFL 529 NSCLC, with M19-MEL melanoma and in the test with DLD-1 colon was more than 100 µM in each case. Moreover, the TGI with DMS 114 small cell lung, with DMS 273 small cell lung and in the test on XF 498 CNS was more than 100 µM throughout.

On to `O=C(c1ccccc1)c1cc(Cl)ccc1NCn1nnc2ccccc21`, for which the TGI in the test on HOP-18 NSCLC, in the test on SF-295 CNS, with KM20L2 colon, in the test on LXFL 529 NSCLC, in the test with M19-MEL melanoma and with DLD-1 colon was more than 100 µM each time. The TGI in the test on DMS 114 small cell lung, in the test with DMS 273 small cell lung and in the test on XF 498 CNS was more than 100 µM in each case.

`COC(=O)C(=O)C(C(=O)C(=O)Nc1ccc(C)c(C)c1)c1nc2ccc([N+](=O)[O-])cc2[nH]c1=O` (stereo unspecified): the TGI in the test on SF-295 CNS was more than 100 µM.

On to `COc1cc2c(cc1OC)C(=O)N(c1ccc(OCCN3CCCC3)cc1)C2=O`, for which, in the test with SF-295 CNS, the TGI is more than 100 µM.

As for `CCOC(=O)c1c(-c2ccccc2)c(C)cn1C`, in the test with SF-295 CNS, the TGI is more than 10 µM.

For `CC(C)[C@@H]1NC(=O)[C@@H]2N=C(O[C@H]2C)[C@H](C(C)C)NC(=O)C2N=C1O[C@H]2C`, in the test on SF-295 CNS, the TGI is more than 100 µM.

With `Cn1c(=O)c2c(nc(N/N=C3/SCC(=O)N3Cc3ccccc3)n2C)n(C)c1=O`, the TGI with SF-295 CNS is more than 100 µM.

On to `CC(=O)NN(c1ccccc1)C1CCN(c2ccccc2)N1C(C)=O` (stereo unspecified), for which the TGI in the test with SF-295 CNS is more than 10 µM.

Turning to `Cc1cc(=O)n2nc(CSc3nnc(Sc4cc(O)ccc4O)s3)sc2n1`, the TGI with SF-295 CNS is more than 100 µM.

`CC[C@]1(Cc2ccc(OC)c(OC)c2)C=[N+]([O-])O[C@H](OC2CCCC2(c2ccccc2)c2ccccc2)[C@@H]1OC(=O)C(C)(C)C` (stereo partly specified) showed a TGI in the test on SF-295 CNS of 14.8 µM.

In the test with SF-295 CNS, `CCC1CN2CCc3c([nH]c4ccccc34)[C@@](C(=O)OC)(c3cc4c(cc3OC)N(C)C3C(O)(C(=O)OC)C(C(=O)OC)C5(CC)C=CCN6CCC43C65)C[C@@H](C2)[C@@H]1C(C)(C)C` (stereo partly specified) gave a TGI of 0.555 µM.

Consider `CCOC(=O)C1CCC(=O)N1C(=O)c1ccc(Cl)cc1` (stereo unspecified), for which the TGI in the test on SF-295 CNS was more than 100 µM.

For the compound `CC(=O)O[C@H]1C(=O)[C@@]2(C)[C@H]([C@H](OC(=O)c3ccco3)[C@]3(O)C[C@H](OC(=O)[C@H](O)[C@@H](NC(=O)c4ccccc4)c4ccccc4)C(C)=C1C3(C)C)[C@]1(OC(C)=O)CO[C@@H]1C[C@@H]2O`, the TGI with SF-295 CNS is more than 19.7 µM.

Regarding `c1cc2c(cc1[C@@H]1OC[C@@H]3[C@H]1CO[C@H]3c1ccc3c(c1)OCO3)OCO2`, in the test on SF-295 CNS, the TGI was more than 100 µM.

The compound `CC(=O)N[C@@H](Cc1ccc(O)cn1)C(=O)NC1CCCCC1` displayed a TGI in the test on SF-295 CNS of more than 100 µM.

For the compound `CCc1cc2c(c3c1CCCC3=O)CC1(C2)Cc2cc(CC)c3c(c2C1)C(=O)CCC3`, the TGI in the test on SF-295 CNS was more than 100 µM.

`Cc1ccc(-n2cc(-c3ccc(Cl)cc3)c3c(=N)n(N)cnc32)cc1`: the TGI in the test on SF-295 CNS is 28.8 µM.

On to `O=C(O)C1(C(O)c2ccccc2)SCCCS1` (stereo unspecified), for which, in the test on SF-295 CNS, the TGI was more than 10 µM.

Take `C=CCN1C(=O)CC(=O)N(NC2=NNC3(C(=O)N2)c2ccccc2-c2ccccc23)C1=S`: the TGI in the test on SF-295 CNS is more than 100 µM.

Compound `NC(N)=NCCCC(NC(=O)c1c2ccccc2nc2ccccc12)C(=O)O` (stereo unspecified) displayed a TGI in the test with SF-295 CNS of more than 100 µM.

`CCCCCCCCCCCCC1N=C(N)N2CCCC2=C1C(=O)OC` (stereo unspecified): the TGI in the test on SF-295 CNS is 3.39 µM.

Regarding `Oc1ccc(SCc2cc(O)ccc2O)cc1`, the TGI with SF-295 CNS was 39 µM.

In the test with SF-295 CNS, `Clc1ccc(C2=NCON=C2c2ccc(Cl)cc2)cc1` had a TGI of 49.4 µM.

Take `c1ccc(-c2c(-c3[nH]c4ccccc4c3-c3ccccc3)[nH]c3ccccc23)cc1`: in the test on SF-295 CNS, the TGI turned out to be 14.9 µM.

The compound `CN(/N=C\c1ccc2ccccc2c1)C1=NCCCN1` came in with a TGI in the test with SF-295 CNS of 26.8 µM.

The compound `COc1cc2c(cc1OC)C(=O)/C(=C/c1ccc(N(C)C)cc1)CC2` registered a TGI in the test on SF-295 CNS of more than 10 µM.

Regarding `CC(=O)N1c2cc(N=NN(C)C)ccc2NC(=O)CC1C` (stereo unspecified), in the test with SF-295 CNS, the TGI is more than 100 µM.

In the test on SF-295 CNS, `CC(C)=CCc1c2c(c(O)c3c(=O)c4c(oc13)-c1ccc(O)cc1OC4C=C(C)C)C=CC(C)(C)O2` (stereo unspecified) showed a TGI of 28.6 µM.
